In patent US20080280765A1, “Method of Promoting Enlargement Growth of Agricultural and Horticultural Crops” (priority 2006, published 2008):
Counter-ions that a name gives are not always drawn.

Tested on: grape (species: "Italia")
Experiment: Fruit enlargement test, grape, dipping treatment of bunches
Type: in vivo
Details: for Mean bunch weight: 7 bunches; for One berry weight: bunch weight/total berry number
Method: Using grape (species: “Italia”) as a subject, a fruit enlargement test was done following the experimental summary described below. The test was carried out with 7 replication. Fifteen days after the full bloom, grape bunches were dipped in a chemical solution diluted to a predetermined concentration. The treated grape bunches were dried in air and grown as they were, until the bunches were harvested 43 days after the treatment to examine the bunch weight and the total number of grape berries. Five berries were randomly selected from each grape bunch of 5 replication among the test lots, for measuring the sugar level with a hand-held refracto-sugar meter manufactured by ATAGO CO., LTD (Type number: Nl). Additionally, a drug substance of gibberellin in powder (98% purity) was used as the gibberellin, while as the prohexadione calcium salt, a 27.5% formulation (the trade name: Viviful) was used, and as the trinexapac ethyl, a 25% formulation thereof (the trade name: Moddus) was used.
Material: Grape bunch “Italia” Fully bloomed on Sep. 21, 2006; starting the treatments on Oct. 6, 2006; harvested on Dec. 18, 2006: 7 bunches per one treatment lot.
C: Cont (control lot) G: dipping treatment in gibberellin (24.5 ppm) PCA: dipping treatment in prohexadione calcium salt (20 ppm, 100 ppm) GPCA: dipping treatment in gibberellin and prohexadione calcium salt (24.5 and 20 ppm, respectively or 24.5 ppm and 100 ppm, respectively) TR: dipping treatment in trinexapac ethyl (20 ppm, 100 ppm) G+TR: dipping treatment in gibberellin and trinexapac ethyl (24.5 ppm and 20 ppm, respectively or 24.5 ppm and 100 ppm, respectively).
Herein, statistical analysis was done by the Tukey's HSD test (p=0.05). Significant difference is observed between different alphabets.

Structure (SMILES) | Mean bunch weight (20 ppm) [g] | One berry weight (20 ppm) [g] | Mean bunch weight (100 ppm) [g] | One berry weight (100 ppm) [g]
CCC(=O)C1=C(O)CC(C(=O)O)CC1=O (centres unmarked) [PCA, prohexadione calcium salt] | 452.9 | 7.3 | 390.0 | 6.4
CCOC(=O)C1CC(=O)C(=C(O)C2CC2)C(=O)C1 (centres unmarked) [TR, trinexapac ethyl] | 487.1 | 7.9 | 474.3 | 6.7
